For one compound, GI50 results are on record in ChEMBL document CHEMBL1152723, “Remarkable enhancement in the DNA-binding ability of C2-fluoro substituted pyrrolo[2,1-c][1,4]benzodiazepines and their anticancer potential” (2009).

Where only a bound is given, the exact number is not on record here.

Type in all cases: functional
The test system of test [1] is IGROV-1. The test can be described thus: Growth inhibition of human IGROV1 cells after 48 hrs by sulforhodamine B protein assay. To be noted: IGROV-1, 48 h. A general note: In SRB staining, fixed cells bind dye roughly in proportion to their protein.
Test [2] has as its system OVCAR-3. The test can be described thus: Growth inhibition of human OVCAR-3 cells after 48 hrs by sulforhodamine B protein assay. To be noted: OVCAR-3, 48 h.
The test system of test [3] is OVCAR-5. The test can be described thus: Growth inhibition of human OVCAR5 cells after 48 hrs by sulforhodamine B protein assay. The conditions noted are these: OVCAR-5, 48 h.
Test [4] concerns UO-31. The test can be described thus: Growth inhibition of human UO31 cells after 48 hrs by sulforhodamine B protein assay. To be noted: UO-31, 48 h.
Test [5] is described as follows: Growth inhibition of human Hs 578T cells after 48 hrs by sulforhodamine B protein assay.
In test [6] the test system is MDA-MB-435. The test can be described thus: Growth inhibition of human MDA-MB-435 cells after 48 hrs by sulforhodamine B protein assay. The conditions noted are these: MDA-MB-435, 48 h.
For test [7], the system named is BT-549. The experiment in a line: Growth inhibition of human BT549 cells after 48 hrs by sulforhodamine B protein assay. To be noted: BT-549, 48 h.
For test [8], the system named is MDA-MB-468. The experiment in a line: Growth inhibition of human MDA-MB-468 cells after 48 hrs by sulforhodamine B protein assay. To be noted: MDA-MB-468, 48 h.
The test system of test [9] is HCC 2998. The experiment in a line: Growth inhibition of human HCC2998 cells after 48 hrs by sulforhodamine B protein assay. The conditions noted are these: HCC 2998, 48 h.
In test [10] the test system is SF-539. The test can be described thus: Growth inhibition of human SF539 cells after 48 hrs by sulforhodamine B protein assay. To be noted: SF-539, 48 h.
Test [11] concerns U-251. The experiment in a line: Growth inhibition of human U251 cells after 48 hrs by sulforhodamine B protein assay. To be noted: U-251, 48 h.
The subject of test [12] is LOX IMVI. The test can be described thus: Growth inhibition of human LOXIMVI cells after 48 hrs by sulforhodamine B protein assay.
Test [13] relates to SK-MEL-2. The test can be described thus: Growth inhibition of human SK-MEL-2 cells after 48 hrs by sulforhodamine B protein assay. To be noted: SK-MEL-2, 48 h.
Test [14] concerns SK-MEL-5. The experiment in a line: Growth inhibition of human SK-MEL-5 cells after 48 hrs by sulforhodamine B protein assay. To be noted: SK-MEL-5, 48 h.
Test [15] has as its system UACC-257. The test can be described thus: Growth inhibition of human UACC257 cells after 48 hrs by sulforhodamine B protein assay. The conditions noted are these: UACC-257, 48 h.
The subject of test [16] is A498. The test can be described thus: Growth inhibition of human A498 cells after 48 hrs by sulforhodamine B protein assay. The conditions noted are these: A498, 48 h.

By GI50 is commonly meant the concentration at which growth is held to half of that of the control. Regarding `COc1cc2c(cc1OCCCN1CCN(CCCOc3cc4c(cc3OC)C(=O)N3CC(F)C[C@H]3C=N4)CC1)N=C[C@@H]1CC(F)CN1C2=O` (stereo partly specified), the GI50 was under 50 nM in test [1]; under 40 nM in [2]; 160 nM in test [3]; 1030 nM in [4]; under 40 nM in [5]; under 30 nM in [6]. Further, the GI50 in [7] is under 90 nM; in [8] it was under 10 nM; in [9], 110 nM; in test [10], under 10 nM; in test [11], under 10 nM; in test [12] it was under 10 nM. For the same compound, the GI50 is 500 nM in [13], under 40 nM in test [14], 1270 nM in test [15] and under 60 nM in test [16].
